Measurements reported in patent publication US20250092066A1, “SUBSTITUTED BICYCLIC HETEROCYCLES AS MALT-1 INHIBITORS” (AURIGENE ONCOLOGY LIMITED, priority 2022, published 2025).

Target: MALT-1 (Isoform1) (Homo sapiens (Human), UniProt Q9UDY8)
Test: Biochemical fluorescent assay of MALT-1 (Isoform1) enzyme inhibition
Settings: recombinant MALT-1 (Isoform1); for inhibition at 1 µM / Percent Inhibition (@ 1 μM): compound at 1 μM; for inhibition at 1 µM: read-out: Percent Inhibition (@ 1 μM); for IC50: 50 μM AC-LRSR-MAC substrate, 240 min
Method: The potency of compounds to inhibit MALT-1 (Isoform1) enzyme was tested in a Fluorescent assay using recombinant MALT-1 (Isoform1, aa-840) generated in-house. The assay buffer was 50 mM HEPES (pH 7.5), 100 mM NaCl, 10 mM DTT, 1 mM EDTA, 0.9 M sodium citrate, 0.01% CHAPS. 1.5 nM of MALT-1 enzyme was incubated with various concentrations of test compounds ([…]) (1% DMSO) in the presence of buffer for 30 minutes at 30° C. The protease reaction was initiated by adding 50 μM of AC-LRSR-MAC (Peptide International, USA) substrate and incubated for 240 min. After 240 min incubation, fluorescence emission of the samples at 460 nm was measured at an excitation of 355 nm. The percent inhibition was calculated using the following formula: […]. IC50 values were determined by fitting the dose-response data to sigmoidal curve fitting equation using Graph pad prism software VS.

Chain of MALT-1 (Isoform1) (Q9UDY8 whole entry, canonical isoform): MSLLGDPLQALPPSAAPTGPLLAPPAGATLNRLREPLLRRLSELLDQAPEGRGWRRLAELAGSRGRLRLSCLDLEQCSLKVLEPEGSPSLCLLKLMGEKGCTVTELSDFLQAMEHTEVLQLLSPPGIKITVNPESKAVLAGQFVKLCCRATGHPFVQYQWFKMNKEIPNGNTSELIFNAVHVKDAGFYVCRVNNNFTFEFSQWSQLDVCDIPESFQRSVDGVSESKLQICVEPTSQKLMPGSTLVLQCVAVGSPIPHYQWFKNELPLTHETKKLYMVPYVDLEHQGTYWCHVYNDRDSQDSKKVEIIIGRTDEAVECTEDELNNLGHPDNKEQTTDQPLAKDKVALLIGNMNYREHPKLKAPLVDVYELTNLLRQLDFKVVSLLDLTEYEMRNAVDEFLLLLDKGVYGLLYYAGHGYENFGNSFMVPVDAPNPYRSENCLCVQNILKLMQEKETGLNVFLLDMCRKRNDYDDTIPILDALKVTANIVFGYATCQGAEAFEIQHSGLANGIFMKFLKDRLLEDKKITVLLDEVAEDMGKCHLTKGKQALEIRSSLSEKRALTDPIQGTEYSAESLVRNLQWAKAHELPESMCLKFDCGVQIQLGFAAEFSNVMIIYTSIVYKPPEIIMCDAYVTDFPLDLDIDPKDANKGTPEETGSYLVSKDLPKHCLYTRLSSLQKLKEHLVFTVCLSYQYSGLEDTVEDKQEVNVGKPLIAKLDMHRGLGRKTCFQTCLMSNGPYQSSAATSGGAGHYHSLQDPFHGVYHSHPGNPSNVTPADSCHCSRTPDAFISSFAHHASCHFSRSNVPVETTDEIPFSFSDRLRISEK

| SMILES | inhibition at 1 µM [%] | IC50 [nM] | Percent Inhibition (@ 1 μM) [%] |
| --- | --- | --- | --- |
| CO[C@@H](C)c1c(NC(=O)Nc2cc(F)c3nc(C)nn3c2)cnc2cc(C#N)nn12 [Example 47] | 54 | < 50 |  |
| CO[C@@H](C)c1c(NC(=O)Nc2cc(C(F)(F)F)c3nc(C)nn3c2)cnc2cc(Cl)nn12 [Example 11] | 98 | < 50 |  |
| COC(c1c(NC(=O)Nc2cc(F)c3nc(C)nn3c2)cnc2cc(Cl)nn12)C1CC1 (racemic) [Example 32, 1-(2-chloro-7-(cyclopropyl(methoxy)methyl)pyrazolo[1,5-a]pyrimidin-6-yl)-3-(8-fluoro-2-methyl-[1,2,4]triazolo[1,5-a]pyridin-6-yl)urea] | 100 | < 50 |  |
| COC(c1c(NC(=O)Nc2cc(F)c3nc(C)nn3c2)cnc2cc(Cl)nn12)C(C)C (single isomer, unassigned) [Example 31b, 1-(2-chloro-7-(1-methoxy-2-methylpropyl)pyrazolo[1,5-a]pyrimidin-6-yl)-3-(8-fluoro-2-methyl-[1,2,4]triazolo[1,5-a]pyridin-6-yl)urea] |  | < 50 | 99 |
| CO[C@@H](C)c1c(NC(=O)Nc2cc(F)c3nc(C)nn3c2)cnc2cc(Br)nn12 [Example 25] | 95 | < 50 |  |
| COC(C)c1c(NC(=O)Nc2cc(Cl)c3ncnn3c2)cnc(C)c1Br (stereo not drawn) [Example 34b, 1-(5-bromo-4-(1-methoxyethyl)-6-methylpyridin-3-yl)-3-(8-chloro-[1,2,4]triazolo[1,5-a]pyridin-6-yl)urea] | 33 |  |  |
| CO[C@@H](C)c1c(NC(=O)Nc2cc(Br)c3ncnn3c2)cnc2cc(Cl)nn12 [Example 3] | 96 | < 50 |  |
| CO[C@@H](C)c1c(NC(=O)Nc2cc(F)c3nc(C)nn3c2)cnc2cc(C3CC3)nn12 [Example 46] | 40 | < 50 |  |
| CO[C@@H](C)c1c(NC(=O)Nc2cc(F)c3nc(CO)nn3c2)cnc2cc(Cl)nn12 [Example 13] | 84 | 51 to 250 |  |
| CO[C@@H](C)c1c(NC(=O)Nc2cc(Cl)c3ncnn3c2)cnc2cc(Cl)nn12 [Example 2] | 97 | < 50 |  |
| CO[C@@H](C)c1c(NC(=O)Nc2cc(Cl)c3nccn3c2)cnc2cc(Cl)nn12 [Example 40] | 96 | 51 to 250 |  |
| COCc1c(NC(=O)Nc2cc(F)c3nc(C)nn3c2)cnc2cc(Cl)nn12 [Example 22] | 62 | > 250 |  |
| COC(C)c1c(NC(=O)Nc2cc(Cl)c3nc(C)nn3c2)cnc(C)c1Br (single isomer, unassigned) [Example 35b, 1-(5-bromo-4-(1-methoxyethyl)-6-methylpyridin-3-yl)-3-(8-chloro-2-methyl-[1,2,4]triazolo[1,5-a]pyridin-6-yl)urea] |  | > 250 | 8 |
| CO[C@@H](C)c1c(NC(=O)Nc2cc(F)c3ncnn3c2)cnc2cc(C)nn12 [Example 28] | 84 | > 250 |  |
| CCC(OC)c1c(NC(=O)Nc2cc(F)c3nc(C)nn3c2)cnc2cc(Cl)nn12 (single isomer, unassigned) [Example 33b, 1-(2-chloro-7-(1-methoxypropyl)pyrazolo[1,5-a]pyrimidin-6-yl)-3-(8-fluoro-2-methyl-[1,2,4]triazolo[1,5-a]pyridin-6-yl)urea] |  | 51 to 250 | 96 |
| COC(C)c1c(NC(=O)Nc2cc(Cl)c3ncnn3c2)cnc(C)c1Br (single isomer, unassigned) [Example 34a, 1-(5-bromo-4-(1-methoxyethyl)-6-methylpyridin-3-yl)-3-(8-chloro-[1,2,4]triazolo[1,5-a]pyridin-6-yl)urea] | 79 | 51 to 250 |  |
| CO[C@@H](C)c1c(NC(=O)Nc2cc(C#N)c3nc(C)nn3c2)cnc2cc(Cl)nn12 [Example 14] | 99 | < 50 |  |
| CO[C@@H](C)c1c(NC(=O)Nc2cc(F)c3ncnn3c2)cnc2cc(C(F)F)nn12 [Example 45] | 78 | 51 to 250 |  |
| Cc1nc2c(F)cc(NC(=O)Nc3cnc4cc(Cl)nn4c3C3(C(F)(F)F)CC3)cn2n1 [Example 23] | 98 | > 250 |  |
| Cc1nc2c(F)cc(NC(=O)Nc3cnc4cc(Cl)nn4c3C(C)C)cn2n1 [Example 16] | 90 | < 50 |  |
| COC(c1c(NC(=O)Nc2cc(F)c3nc(C)nn3c2)cnc2cc(Cl)nn12)C(C)C (single isomer, unassigned) [Example 31a, 1-(2-chloro-7-(1-methoxy-2-methylpropyl)pyrazolo[1,5-a]pyrimidin-6-yl)-3-(8-fluoro-2-methyl-[1,2,4]triazolo[1,5-a]pyridin-6-yl)urea] | 100 | < 50 |  |

| SMILES | inhibition at 1 µM [%] | IC50 [nM] | Percent Inhibition (@ 1 μM) [%] |
| --- | --- | --- | --- |
| COC(C)c1c(NC(=O)Nc2cc(Cl)c3nc(C)nn3c2)cnc(C)c1Br (single isomer, unassigned) [Example 35a, 1-(5-bromo-4-(1-methoxyethyl)-6-methylpyridin-3-yl)-3-(8-chloro-2-methyl-[1,2,4]triazolo[1,5-a]pyridin-6-yl)urea] |  | 51 to 250 | 88 |
| CO[C@@H](C)c1c(NC(=O)Nc2cc(F)c3nc(C)c(C)n3c2)cnc2cc(Cl)nn12 [Example 42] | 79 | 51 to 250 |  |
| COC(C)c1c(NC(=O)Nc2cc(Cl)c3ncnn3c2)cnc(C)c1Br (racemic) [Example 34, 1-(5-bromo-4-(1-methoxyethyl)-6-methylpyridin-3-yl)-3-(8-chloro-[1,2,4]triazolo[1,5-a]pyridin-6-yl)urea] | 71 | > 250 |  |
| CO[C@@H](C)c1c(NC(=O)Nc2cc(Cl)c3nc(C4CC4)nn3c2)cnc2cc(Cl)nn12 [Example 6] | 97 | < 50 |  |
| COC(C)c1c(NC(=O)Nc2cc(F)c3nc(C)nn3c2)cnc(C)c1Cl (stereo not drawn) [Example 37] | 48 | > 250 |  |
| Cc1nc2c(C3CC3)c(NC(=O)Nc3cc(Cl)c4ncnn4c3)cnc2s1 [Example 38, 1-(8-chloro-[1,2,4]triazolo[1,5-a]pyridin-6-yl)-3-(7-cyclopropyl-2-methylthiazolo[5,4b]pyridin-6-yl)urea] | 62 | > 250 |  |
| CO[C@@H](C)c1c(NC(=O)Nc2cc(F)c3nc(C)nn3c2)cnc2cc(OC(F)F)nn12 [Example 26] | 71 | > 250 |  |
| CO[C@@H](C)c1c(NC(=O)Nc2cc(F)c3nc(CN(C)C)nn3c2)cnc2cc(Cl)nn12 [Example 29] | 83 | 51 to 250 |  |
| COC(c1c(NC(=O)Nc2cc(F)c3nc(C)nn3c2)cnc2cc(Cl)nn12)C1CC1 (single isomer, unassigned) [Example 32a, 1-(2-chloro-7-(cyclopropyl(methoxy)methyl)pyrazolo[1,5-a]pyrimidin-6-yl)-3-(8-fluoro-2-methyl-[1,2,4]triazolo[1,5-a]pyridin-6-yl)urea] | 96 | 51 to 250 |  |
| Cc1nc2c(F)cc(NC(=O)Nc3cnc4cc(Cl)nn4c3C3CCCO3)cn2n1 (stereo not drawn) [Example 12] | 81 | 51 to 250 |  |
| CCC(OC)c1c(NC(=O)Nc2cc(F)c3nc(C)nn3c2)cnc2cc(Cl)nn12 (racemic) [Example 33, 1-(2-chloro-7-(1-methoxypropyl)pyrazolo[1,5-a]pyrimidin-6-yl)-3-(8-fluoro-2-methyl-[1,2,4]triazolo[1,5-a]pyridin-6-yl)urea] | 98 | < 50 |  |
| COCc1nc2c(F)cc(NC(=O)Nc3cnc4cc(Cl)nn4c3[C@H](C)OC)cn2n1 [Example 17] | 82 | < 50 |  |
| CO[C@@H](C)[C@@H](OC)c1c(NC(=O)Nc2cc(F)c3nc(C)nn3c2)cnc2cc(Cl)nn12 [Example 21] | 96 | > 250 |  |
| CCC(OC)c1c(NC(=O)Nc2cc(F)c3nc(C)nn3c2)cnc2cc(Cl)nn12 (single isomer, unassigned) [Example 33a, 1-(2-chloro-7-(1-methoxypropyl)pyrazolo[1,5-a]pyrimidin-6-yl)-3-(8-fluoro-2-methyl-[1,2,4]triazolo[1,5-a]pyridin-6-yl)urea] | 99 | < 50 |  |
| CO[C@@H](C)c1c(NC(=O)Nc2cc(C(F)(F)F)c3ncnn3c2)cnc2cc(Cl)nn12 [Example 4] | 94 | 51 to 250 |  |
| CO[C@@H](C)c1c(NC(=O)Nc2cn3nc(C)nc3c(Br)c2C)cnc2cc(Cl)nn12 [Example 19] | 17 | > 250 |  |
| COC(C)c1c(NC(=O)Nc2cc(F)c3nc(C)nn3c2)cnc(C)c1Br (stereo not drawn) [Example 36] | 69 | > 250 |  |
| CO[C@@H](C)c1c(NC(=O)Nc2cc(Cl)c3nc(Cl)nn3c2)cnc2cc(Cl)nn12 [Example 30] | 96 | < 50 |  |
| CO[C@@H](C)c1c(NC(=O)Nc2cc(C#N)c3ncnn3c2)cnc2cc(Cl)nn12 [Example 18] | 98 | < 50 |  |
| COC(C)c1c(NC(=O)Nc2cc(Cl)c3nc(C)nn3c2)cnc(C)c1Br (racemic) [Example 35, 1-(5-bromo-4-(1-methoxyethyl)-6-methylpyridin-3-yl)-3-(8-chloro-2-methyl-[1,2,4]triazolo[1,5-a]pyridin-6-yl)urea] | 72 | > 250 |  |
